This data set in a line: HPLC chromatograms of samples comprising vitamin C (degradation products). The class given is physicochemical. Particulars: after 1 hour at ambient conditions without chemical stabilization. The method, then: FIGS. 36A and 36B show two HPLC chromatograms from samples comprising vitamin C. […] No degradation products were visible. FIG. 59 is a table summarizing the vitamin C concentration in silk protein fragment-films (2% silk films air dried at RT) of the present disclosure. In FIG. 59 processing conditions included 100° C. extraction for 20 min, RT rinse, LiBr in 60° C. oven for 4-6 hours. FIG. 60 is arable summarizing the stability of vitamin C in chemically stabilized solutions. FIGS. 89A-89B are tables summarizing vitamin C stability in SPF gels without chemical stabilizers as compared to chemically stabilized vitamin C in competitive anti-aging skincare products. […] Without wishing to be bound by theory, it appears there is a relationship between vitamin C concentration, silk concentration, and gelation. An increase in vitamin C at a given concentration of silk will result in a longer time to gelation or inhibit gelation. This may be due to the vitamin C molecule physically blocking interaction between silk protein fragments or cross-linking of silk protein.

As for `O=C1O[C@H]([C@@H](O)CO)C(O)=C1O` [vitamin C, L-ascorbic acid], the “degradation products of vitamin C” value was “degradation products are visible”.
